This is an account of results in US20230365571A1, “COMPOUNDS AND COMPOSITIONS AS Sppl2a INHIBITORS” (Novartis AG, priority 2020, published 2023).

Holding throughout (format): cell-based
Assay [1] addresses T1, human SPPL2a (Homo sapiens, UniProt Q8TCT8).
T1 sequence (Q8TCT8 26-520): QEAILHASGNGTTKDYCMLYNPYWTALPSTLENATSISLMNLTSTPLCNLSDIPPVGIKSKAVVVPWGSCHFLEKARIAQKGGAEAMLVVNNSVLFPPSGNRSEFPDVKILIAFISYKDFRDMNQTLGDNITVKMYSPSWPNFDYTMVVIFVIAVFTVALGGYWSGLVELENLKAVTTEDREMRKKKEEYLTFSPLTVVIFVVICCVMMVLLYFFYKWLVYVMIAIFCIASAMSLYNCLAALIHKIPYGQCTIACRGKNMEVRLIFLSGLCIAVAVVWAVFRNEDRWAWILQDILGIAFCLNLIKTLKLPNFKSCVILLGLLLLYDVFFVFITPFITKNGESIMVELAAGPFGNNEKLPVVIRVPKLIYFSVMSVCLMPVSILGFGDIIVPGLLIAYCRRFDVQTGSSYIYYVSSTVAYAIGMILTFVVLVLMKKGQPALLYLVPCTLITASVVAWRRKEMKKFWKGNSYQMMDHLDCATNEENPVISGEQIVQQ
The assay can be described thus: Sppl2a RGA (reporter gene assay) in HEK293 cells. On the set-up: expressed in transfected cells; host or cells: HEK293 (transient). To be noted: NT-TNF-VP16-Gal4 substrate, Gal4-luciferase reporter, 24 h. In short, it runs like this: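 Cleavage of a membrane-bound TNF N-terminal–VP16-Gal4 substrate drives Gal4-luciferase expression in transiently transfected HEK293 cells also expressing human SPPL2a. Compounds incubated 24 h, 37 °C, 5% CO2; luminescence read, normalized and plotted against concentration for IC50.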
(In general: Reporter assays use an easily measured gene product as a stand-in for the process of interest.)

Another assay addresses γ-secretase (Homo sapiens, UniProt P49768). The assay can be described thus: γ-secretase RGA (reporter gene assay, Notch1 substrate) in HEK293 cells. To be noted: Notch1-VP16-Gal4 substrate, Gal4-luciferase reporter, 24 h, read-out: g-secretase RGA IC50.
Assay [2] addresses T1, human SPPL2a. The assay can be described thus: Sppl2a TL (translocation) imaging assay in U-2 OS cells. Further details: expressed in transfected cells. The following applies: U-2 OS cells expressing human SPPL2a and EGFP-TNFα(aa1-76) NTF substrate; 24 h. The gist of the method:
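U-2 OS cells stably expressing human SPPL2a plus doxycycline-induced EGFP-TNFα(aa1-76) NTF, treated 24 h at 37 °C with inhibitor (100 μM–1 nM, 11 points, 0.9% DMSO, 5 μg/mL doxycycline). Imaging of nuclear-minus-cytoplasmic EGFP intensity; % inhibition versus 0.5 μM LY-411,575 and DMSO, IC50 by nonlinear regression; CC50 from cell count.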

For another assay, the target named is T2, Sppl2a CD74 (Mus musculus, UniProt Q9JJF9).
T2 construct: Mouse whole blood Balb/c mice (sodium citrate) was ordered by Bioreclamation LLC; tissue Bioreclamation LLC
T2 sequence (Q9JJF9 26-523): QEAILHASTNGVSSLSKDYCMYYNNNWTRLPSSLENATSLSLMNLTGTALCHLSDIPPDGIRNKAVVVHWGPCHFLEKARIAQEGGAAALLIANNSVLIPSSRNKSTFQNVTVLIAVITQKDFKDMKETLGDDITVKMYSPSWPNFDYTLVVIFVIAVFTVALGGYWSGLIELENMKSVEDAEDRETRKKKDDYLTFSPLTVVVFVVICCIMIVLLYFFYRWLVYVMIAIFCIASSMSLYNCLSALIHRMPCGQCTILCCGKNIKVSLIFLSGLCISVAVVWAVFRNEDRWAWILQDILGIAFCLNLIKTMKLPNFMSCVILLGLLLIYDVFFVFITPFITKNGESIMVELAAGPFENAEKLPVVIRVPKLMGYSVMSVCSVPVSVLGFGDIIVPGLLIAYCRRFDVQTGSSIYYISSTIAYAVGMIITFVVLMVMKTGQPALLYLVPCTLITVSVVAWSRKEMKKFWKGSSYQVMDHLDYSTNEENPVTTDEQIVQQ
The assay can be described thus: CD74/p8 mouse whole blood assay, flow cytometry format. The following applies: Balb/c mouse whole blood, 5 h, CD74 signal on gated live B cells. In short, it runs like this: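 Balb/c mouse whole blood (citrate) incubated 5 h at 37 °C with compounds, 11-point dilution from 30 μM top. After RBC lysis, live B220+ B cells stained intracellularly for CD74 (FITC) and analysed by flow cytometry. IC50 fitted from CD74 median fluorescence intensity.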
(A flow cytometer gives signals particle by particle.)

Excerpt for γ-secretase: The assay is based on the coupling of the proteolytic degradation of a membrane bound synthetic substrate, a VP16-Gal4 fusion protein with Notch1, which migrates to the nucleus upon cleavage, where it activates Gal4 driven expression of luciferase. […] The luciferase dependent-luminescence is plotted against the concentrations of compound to generate a dose response curve, which allows the calculation of the IC50 value. DNA vectors encoding human Notch1-VP16-Gal4 and a Gal4-luciferase reporter were transiently transfected in HEK293 cells, which express γ-secretase components endogenously. In a typical experiment 10 μg plasmid encoding the reporter Gal4-luciferase and 20 μg plasmid encoding the substrate Notch1-VP16-Gal4 were mixed together. The DNA mixture was combined with 107 μl FuGENE® (Promega), 735 μl Opti-MEM® (Life Technologies) and incubated for 5 minutes at RT. To this mixture 20 mL of concentrated HEK293 cells were added and thoroughly mixed. The cell suspension was distributed to a white solid 384 well plate. Within hours, 50 nl of compound in DMSO was stamped into the wells via pintool. […] After incubation at room temperature for 5 min, the plate was transferred to a luminometer and the luminescence was measured. The IC50 was determined by plotting compound concentration vs. normalized luminescence values.

For “3,4-Dimethyl-N- ((R)-2-(((S)-11- oxo-2,3,10,11- tetrahydro- 1H,5H- benzo[d]pyrazolo [1,2- a][1,2]diazepin- 10- yl)carbamoyl)pen- tyl)isoxazole-5- carboxamide [Example 33]”, the IC50 (commonly the concentration that inhibits the measured activity by half) against human SPPL2a [1] is 7 nM; at γ-secretase it was over 10000 nM; against human SPPL2a [2], 37 nM.

On to `CC(C)C(=O)Nc1cc(NC(=O)C[C@H](C(=O)N[C@@H]2C(=O)N3CC4(CC4)CN3C(=O)c3ccccc32)C2CC2)n(C)n1` [Example 93, (S)-2-Cyclopropyl-N^1-((S)-5,11-dioxo-10,11-dihydro-1H,3H,5H-spiro[benzo[d]pyrazolo[1,2-a][1,2]diazepine-2,1′-cyclopropan]-10-yl)-N^4-(3-isobutyramido-1-methyl-1H-pyrazol-5-yl)succinamide], for which the IC50 on human SPPL2a [1] was 168 nM; against Sppl2a CD74 it was 1130 nM; against human SPPL2a [2] it was 12 nM.

In the case of `C[C@H](CC(=O)Nc1cc(-c2ccccn2)nn1C)C(=O)N[C@@H]1C(=O)N2CCCN2Cc2ccccc21` [Example 94, (R)-2-Methyl-N^4-(1-methyl-3-(pyridin-2-yl)-1H-pyrazol-5-yl)-N^1-((S)-11-oxo-2,3,10,11-tetrahydro-1H,5H-benzo[d]pyrazolo [1,2-a][1,2]diazepin-10-yl)succinamide], the IC50 on human SPPL2a [1] was 34 nM; on Sppl2a CD74, 2540 nM; on human SPPL2a [2], 12 nM.

For the molecule `COCCn1cc(-c2nc(Cl)c(NC(=O)C[C@@H](C)C(=O)N[C@@H]3C(=O)N4CCCN4Cc4ccccc43)s2)cn1` [Example 99, (R)-N^4-(4-Chloro-2-(1-(2-methoxyethyl)-1H-pyrazol-4-yl)thiazol-5-yl)-2-methyl-N^1-((S)-11-oxo-2,3,10,11-tetrahydro-1H,5H-benzo[d]pyrazolo [1,2-a][1,2]diazepin-10-yl)succinamide], the IC50 stood at 50 nM against human SPPL2a [1], 892 nM on Sppl2a CD74 and 14 nM on human SPPL2a [2].

Take `C[C@@H](CF)NC(=O)c1cc(NC(=O)C[C@H](C(=O)N[C@@H]2C(=O)N3CCCN3Cc3c(F)cccc32)C2CC2)n(C)n1` [Example 100, (S)-2-Cyclopropyl-N^1-((S)-6-fluoro-11-oxo-2,3,10,11-tetrahydro-1H,5H-benzo[d]pyrazolo [1,2-a][1,2]diazepin-10-yl)-N^4-(3-(((S)-1-fluoropropan-2-yl)carbamoyl)-1-methyl-1H-pyrazol-5-yl)succinamide]: the half-inhibitory concentration (IC50) on human SPPL2a [1] was 28 nM; against Sppl2a CD74 it was 272 nM; against human SPPL2a [2], 15 nM.

On to `CCn1nc(-c2cc(C)no2)cc1NC(=O)C[C@@H](C)C(=O)N[C@@H]1C(=O)N2CCCN2Cc2ccccc21` [Example 101, (R)-N^4-(1-Ethyl-3-(3-methylisoxazol-5-yl)-1H-pyrazol-5-yl)-2-methyl-N^1-((S)-11-oxo-2,3,10,11-tetrahydro-1H,5H-benzo[d]pyrazolo [1,2-a][1,2]diazepin-10-yl)succinamide], for which the 50% inhibitory concentration (IC50) turned out to be 7 nM on human SPPL2a [1], 473 nM on Sppl2a CD74 and 15 nM against human SPPL2a [2].

For `C[C@H](CC(=O)Nc1cc(C(=O)NC2CC2)nn1C)C(=O)N[C@@H]1C(=O)N2CCCN2Cc2ccccc21` [Example 102, (R)-N^4-(3-(Cyclopropylcar-bamoyl)-1-methyl-1H-pyrazol-5-yl)-2-methyl-N^1-((S)-11-oxo-2,3,10,11-tetrahydro-1H,5H-benzo[d]pyrazolo [1,2-a][1,2]diazepin-10-yl)succinamide], the values for the 50% inhibitory concentration (IC50) against human SPPL2a [1], against Sppl2a CD74 and against human SPPL2a [2] were 123 nM, 1520 nM and 17 nM, respectively.

As for `Cn1nc(-c2cc(C3CC3)no2)cc1NC(=O)C[C@H](C(=O)N[C@@H]1C(=O)N2CC3(CC3)CN2C(=O)c2ccccc21)C1CC1` [Example 103, (S)-2-Cyclopropyl-N^4-(3-(3-cyclopropylisoxa-zol-5-yl)-1-methyl-1H-pyrazol-5-yl)-N^1-((S)-5,11-dioxo-10,11-dihydro-1H,3H,5H-spiro[benzo[d]pyr-azolo[1,2-a][1,2]diazepine-2,1″- cyclopropan]-10-yl)succinamide], the IC50 stood at 13 nM against human SPPL2a [1], 1250 nM on Sppl2a CD74 and 17 nM against human SPPL2a [2].
